Experimental findings from ChEMBL document CHEMBL1201862, “PubChem BioAssay data set” (2004) are described below.

The source made the active and inactive calls.

One may read the IC50 as the midpoint of a concentration-inhibition curve. Usually EC50 stands for the concentration that produces a half-maximal response. What is called AC50 is the concentration giving half of the maximal activity seen.

The nature of test [1]: cells. The test is classed as functional, cell-based.
For test [2], the target named is T1, Trace amine-associated receptor 1 (Homo sapiens, UniProt Q96RJ0). The test is described as follows: Fluorescence-based cell-based high throughput dose response assay to identify agonists of the human trace amine associated receptor 1 (TAAR1). The test is classed as functional.
Test [3] deals with T1, Trace amine-associated receptor 1. The test is described as follows: Counterscreen for agonists of the human trace amine associated receptor 1 (hTAAR1): Fluorescence-based cell-based high throughput dose response assay to identify hTAAR1 agonist that also desensitize TAAR1 receptor response. The test is classed as functional. In general terms: The purpose of a counterscreen is to sort out artefacts and off-target activity.

A short description of test [4]: cells. In kind it is functional, cell-based. This is another data set of the same source.
Test [5] concerns the target T2, Oxysterols receptor LXR-beta (Homo sapiens, UniProt P55055).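 Further: Cell-based luminescence dose-response assay of agonist activity at LXR, run as a confirmatory counterscreen to a daf-12 agonist screen; HEK293 cells with Gal4-LXR fusion and GAL4-driven luciferase reporter; agonist potency from rising luciferase signal of a Gal4-LXR reporter.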
T2 sequence (P55055 whole entry): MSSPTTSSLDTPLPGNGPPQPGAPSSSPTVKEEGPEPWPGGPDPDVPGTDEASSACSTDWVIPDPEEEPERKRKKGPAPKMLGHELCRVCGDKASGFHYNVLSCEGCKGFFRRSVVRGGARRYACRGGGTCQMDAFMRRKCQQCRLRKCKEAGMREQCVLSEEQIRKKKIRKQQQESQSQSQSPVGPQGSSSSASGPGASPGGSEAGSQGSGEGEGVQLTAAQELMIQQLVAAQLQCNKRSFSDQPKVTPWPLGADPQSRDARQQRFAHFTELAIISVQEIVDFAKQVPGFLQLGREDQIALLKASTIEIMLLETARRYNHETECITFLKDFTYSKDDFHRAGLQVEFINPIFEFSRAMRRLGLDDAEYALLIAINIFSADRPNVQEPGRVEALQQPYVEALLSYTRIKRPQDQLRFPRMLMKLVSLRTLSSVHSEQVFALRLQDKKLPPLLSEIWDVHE
The test is classed as functional, cell-based.

Test [6] is described as follows: cells.
Test [7] is described as follows: human group III sPLA2 inhibitors, dose response, biochemical, QFRET, IC50 (AID 743457).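 Further: green fluorescence rise as the enzyme cleaves BODIPY PC-A2 in liposomes; potency for inhibition of the enzyme.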
The nature of test [8]: Late stage assay provider results from the probe development effort to identify selective inhibitors of heat shock protein 90 (HSP90): Absorbance-based cell proliferation assay in SKBR3 cells. In kind it is functional. Conditions: SK-BR-3.
Test [9] is described as follows: Luminescence Cell-Based Dose Confirmation HTS to Identify Activators of 5'UTR Stem-Loop Driven Alpha-Synuclein mRNA Translation in H4 Neuroglioblastoma Cells. [Related pubchem assays: 1829 (Project Summary), 1814 (Primary HTS)]. The test is classed as functional.
Test [10] can be described thus: Luminescence Cell-Based Dose Response HTS to Identify Activators of Luciferase Translation or Activity in H4 […] Cells. [Related pubchem assays: 1829 (Project Summary), 1814 (Primary HTS)]. The test is classed as functional.
A further test concerns H4. The test can be described thus: Luminescence Cell-Based Dose Response HTS to Identify Activators of 5'UTR Stem-Loop Driven Prion Protein mRNA Translation in H4 Neuroglioblastoma Cells. [Related pubchem assays: 1829 (Project Summary), 1814 (Primary HTS)]. The test is classed as functional. Conditions: Homo sapiens.
Test [11] deals with T3, Calpain-2 catalytic subunit (Sus scrofa, UniProt P43367).
T3 sequence (P43367 whole entry): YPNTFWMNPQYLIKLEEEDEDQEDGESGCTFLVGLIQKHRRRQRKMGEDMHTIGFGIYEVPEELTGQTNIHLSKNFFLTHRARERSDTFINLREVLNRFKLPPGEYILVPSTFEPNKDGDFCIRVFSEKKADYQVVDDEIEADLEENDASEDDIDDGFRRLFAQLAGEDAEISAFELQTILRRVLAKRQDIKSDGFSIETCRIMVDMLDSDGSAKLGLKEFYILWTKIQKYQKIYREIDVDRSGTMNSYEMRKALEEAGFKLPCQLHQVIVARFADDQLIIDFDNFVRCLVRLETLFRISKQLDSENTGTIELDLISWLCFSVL
The test is described as follows: pig calpain II inhibitor potency, dose response, biochemical, fluorogenic peptide substrate (AID 1420). In kind it is functional.

Test [12] in a line: inhibitors of HIV Env-driven cell fusion, dose response, cherry-pick (AID 652057). In kind it is functional, cell-based.
Test [13] in a line: inhibitors of clade B AD8 Env fusion, dose response, cell-based, cherry-pick (AID 652062).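 Further: luciferase signal from cell-cell fusion driven by HIV-1 clade B AD8 Env; potency is for inhibitors of fusion seen as a drop in luminescence.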 The test is classed as functional.
Test [14] has as its target 1-phosphatidylinositol 4,5-bisphosphate phosphodiesterase gamma-1 (Homo sapiens, UniProt P19174). The test is described as follows: Counterscreen for inhibitors of phospholipase C isozymes (PLC-B3): Fluorescence-based biochemical high throughput dose response assay to identify inhibitors of phospholipase C isozymes (PLC-gamma1).
In test [15] the target is 1-phosphatidylinositol 4,5-bisphosphate phosphodiesterase beta-3 (Homo sapiens, UniProt Q01970). The test can be described thus: Fluorescence-based biochemical high throughput dose response assay to identify inhibitors of phospholipase C isozymes (PLC-B3).
Test [16] deals with COUP transcription factor 2 (Homo sapiens, UniProt P24468). The test is described as follows: Luminescence-based cell-based high throughput dose response assay to identify inhibitors of COUP-TFII (NR2F2). In kind it is functional.
Test [17] is described as follows: cytotoxicity in L-6 rat myocytes, dose response, cytotoxicity control, cell-based, plate reader, cherry-pick (AID 651896). In kind it is functional.
Test [18] is described as follows: L. donovani amastigote growth inhibition, dose response, axenic amastigotes, plate reader, cherry pick (AID 651891). The test is classed as functional, cell-based. Conditions: Leishmania donovani.
Test [19] can be described thus: intracellular Trypanosoma cruzi inhibitors in host cells – cell-based, plate reader, cherry-pick samples, set 3, dose response (AID 651818).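 Further: compounds incubated with infected cells for about four days.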 The test is classed as functional.
Test [20] in a line: T. b. rhodesiense proliferation inhibition, dose response, STIB900 strain, plate reader, cherry pick (AID 651893). In kind it is functional, cell-based. Conditions: Trypanosoma brucei.
Test [21] can be described thus: P. falciparum blood-stage growth inhibition, dose response, NF54 strain, plate reader, dry powder (AID 651889). The test is classed as functional, cell-based.
Test [22] can be described thus: L-6 rat myoblast cytotoxicity, dose response, counter-screen for T. cruzi inhibitor project, cell-based, plate reader, dry powder (AID 651895). In kind it is functional.
Test [23] is described as follows: T. cruzi growth inhibition in host cells, dose response, cell-based, plate reader, dry powder, set 2 (AID 652275). In kind it is functional.
A short description of test [24]: growth inhibition of intracellular T. cruzi, dose response, cell-based, plate reader, dry powder samples (AID 651845). The test is classed as functional.
Test [25] can be described thus: T. cruzi intracellular amastigote growth inhibition, dose response, imaging, CA-I/72 strain, bovine embryo skeletal muscle, dry powder (AID 651885). The test is classed as functional, cell-based.
Test [26] is described as follows: L. donovani amastigote growth inhibition, dose response, axenic amastigotes, plate reader, dry powder (AID 651892). The test is classed as functional, cell-based.
Test [27] in a line: T. cruzi amastigote growth inhibition, dose response, Tulahuen strain, L-6 host cells, dry powder (AID 651890). In kind it is functional, cell-based.
Test [28] can be described thus: T. b. rhodesiense proliferation inhibition, dose response, STIB900 strain, plate reader, dry powder (AID 651894). In kind it is functional, cell-based.
The next test concerns Cryptococcus neoformans. The test is described as follows: PubChem AID 686997. In kind it is functional, organism-based.
A further test deals with HeLa. The test can be described thus: HeLa cell cytotoxicity, dose response, cytotoxicity control, ATP luminescence, cherry-pick samples (AID 687004). The test is classed as functional, cell-based. Conditions: Homo sapiens.

T1 sequence (Q96RJ0 whole entry): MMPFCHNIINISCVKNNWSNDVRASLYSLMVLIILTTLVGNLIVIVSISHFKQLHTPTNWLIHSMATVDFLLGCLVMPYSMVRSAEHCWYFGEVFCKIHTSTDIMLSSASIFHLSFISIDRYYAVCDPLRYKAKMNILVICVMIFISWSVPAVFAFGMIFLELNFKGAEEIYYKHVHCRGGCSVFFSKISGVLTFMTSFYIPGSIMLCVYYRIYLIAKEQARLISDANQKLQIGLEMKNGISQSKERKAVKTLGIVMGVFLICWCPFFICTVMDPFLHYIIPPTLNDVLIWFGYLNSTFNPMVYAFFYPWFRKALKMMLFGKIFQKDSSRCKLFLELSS
Chain of COUP transcription factor 2 (P24468 whole entry): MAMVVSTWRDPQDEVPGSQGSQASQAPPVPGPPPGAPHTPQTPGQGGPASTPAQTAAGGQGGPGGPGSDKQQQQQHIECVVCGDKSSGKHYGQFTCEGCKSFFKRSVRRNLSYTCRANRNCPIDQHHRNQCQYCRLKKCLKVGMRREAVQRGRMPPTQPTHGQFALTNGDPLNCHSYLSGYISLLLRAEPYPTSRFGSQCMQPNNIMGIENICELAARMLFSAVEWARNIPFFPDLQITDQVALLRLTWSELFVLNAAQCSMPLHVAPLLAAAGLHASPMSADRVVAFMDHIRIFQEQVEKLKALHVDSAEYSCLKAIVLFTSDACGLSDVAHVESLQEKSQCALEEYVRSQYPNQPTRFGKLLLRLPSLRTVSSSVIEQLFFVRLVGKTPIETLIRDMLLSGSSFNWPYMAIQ
Chain of 1-phosphatidylinositol 4,5-bisphosphate phosphodiesterase beta-3 (Q01970 whole entry): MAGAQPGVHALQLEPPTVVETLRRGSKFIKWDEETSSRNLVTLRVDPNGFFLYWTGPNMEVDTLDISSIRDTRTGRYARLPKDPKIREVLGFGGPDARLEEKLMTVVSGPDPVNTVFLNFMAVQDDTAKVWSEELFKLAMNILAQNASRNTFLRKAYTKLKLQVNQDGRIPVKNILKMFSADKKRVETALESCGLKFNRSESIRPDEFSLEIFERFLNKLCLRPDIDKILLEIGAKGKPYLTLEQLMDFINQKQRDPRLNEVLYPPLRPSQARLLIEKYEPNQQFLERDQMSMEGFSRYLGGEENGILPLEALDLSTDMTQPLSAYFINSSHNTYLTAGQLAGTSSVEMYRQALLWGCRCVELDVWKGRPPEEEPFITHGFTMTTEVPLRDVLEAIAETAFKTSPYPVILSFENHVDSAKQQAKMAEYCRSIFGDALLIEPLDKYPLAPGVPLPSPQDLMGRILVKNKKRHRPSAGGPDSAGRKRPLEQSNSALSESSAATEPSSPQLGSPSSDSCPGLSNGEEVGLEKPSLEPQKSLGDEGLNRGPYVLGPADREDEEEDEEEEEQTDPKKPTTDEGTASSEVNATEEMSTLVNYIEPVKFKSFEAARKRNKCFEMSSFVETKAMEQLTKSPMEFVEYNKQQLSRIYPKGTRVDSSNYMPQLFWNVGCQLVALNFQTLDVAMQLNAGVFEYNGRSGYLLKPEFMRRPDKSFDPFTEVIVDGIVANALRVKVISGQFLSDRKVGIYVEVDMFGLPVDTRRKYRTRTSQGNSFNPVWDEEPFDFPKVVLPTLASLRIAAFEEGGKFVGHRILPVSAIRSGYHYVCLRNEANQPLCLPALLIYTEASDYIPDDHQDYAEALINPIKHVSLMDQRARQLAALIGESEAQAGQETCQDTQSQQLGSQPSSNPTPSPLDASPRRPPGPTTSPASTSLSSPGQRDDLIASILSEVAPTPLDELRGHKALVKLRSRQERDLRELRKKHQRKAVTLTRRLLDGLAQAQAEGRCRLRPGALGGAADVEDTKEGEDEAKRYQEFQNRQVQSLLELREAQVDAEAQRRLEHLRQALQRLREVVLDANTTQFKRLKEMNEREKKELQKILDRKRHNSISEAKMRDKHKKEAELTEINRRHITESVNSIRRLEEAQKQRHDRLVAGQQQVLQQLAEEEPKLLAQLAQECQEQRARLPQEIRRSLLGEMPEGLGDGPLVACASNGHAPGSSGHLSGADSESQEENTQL
Chain of 1-phosphatidylinositol 4,5-bisphosphate phosphodiesterase gamma-1 (P19174 whole entry): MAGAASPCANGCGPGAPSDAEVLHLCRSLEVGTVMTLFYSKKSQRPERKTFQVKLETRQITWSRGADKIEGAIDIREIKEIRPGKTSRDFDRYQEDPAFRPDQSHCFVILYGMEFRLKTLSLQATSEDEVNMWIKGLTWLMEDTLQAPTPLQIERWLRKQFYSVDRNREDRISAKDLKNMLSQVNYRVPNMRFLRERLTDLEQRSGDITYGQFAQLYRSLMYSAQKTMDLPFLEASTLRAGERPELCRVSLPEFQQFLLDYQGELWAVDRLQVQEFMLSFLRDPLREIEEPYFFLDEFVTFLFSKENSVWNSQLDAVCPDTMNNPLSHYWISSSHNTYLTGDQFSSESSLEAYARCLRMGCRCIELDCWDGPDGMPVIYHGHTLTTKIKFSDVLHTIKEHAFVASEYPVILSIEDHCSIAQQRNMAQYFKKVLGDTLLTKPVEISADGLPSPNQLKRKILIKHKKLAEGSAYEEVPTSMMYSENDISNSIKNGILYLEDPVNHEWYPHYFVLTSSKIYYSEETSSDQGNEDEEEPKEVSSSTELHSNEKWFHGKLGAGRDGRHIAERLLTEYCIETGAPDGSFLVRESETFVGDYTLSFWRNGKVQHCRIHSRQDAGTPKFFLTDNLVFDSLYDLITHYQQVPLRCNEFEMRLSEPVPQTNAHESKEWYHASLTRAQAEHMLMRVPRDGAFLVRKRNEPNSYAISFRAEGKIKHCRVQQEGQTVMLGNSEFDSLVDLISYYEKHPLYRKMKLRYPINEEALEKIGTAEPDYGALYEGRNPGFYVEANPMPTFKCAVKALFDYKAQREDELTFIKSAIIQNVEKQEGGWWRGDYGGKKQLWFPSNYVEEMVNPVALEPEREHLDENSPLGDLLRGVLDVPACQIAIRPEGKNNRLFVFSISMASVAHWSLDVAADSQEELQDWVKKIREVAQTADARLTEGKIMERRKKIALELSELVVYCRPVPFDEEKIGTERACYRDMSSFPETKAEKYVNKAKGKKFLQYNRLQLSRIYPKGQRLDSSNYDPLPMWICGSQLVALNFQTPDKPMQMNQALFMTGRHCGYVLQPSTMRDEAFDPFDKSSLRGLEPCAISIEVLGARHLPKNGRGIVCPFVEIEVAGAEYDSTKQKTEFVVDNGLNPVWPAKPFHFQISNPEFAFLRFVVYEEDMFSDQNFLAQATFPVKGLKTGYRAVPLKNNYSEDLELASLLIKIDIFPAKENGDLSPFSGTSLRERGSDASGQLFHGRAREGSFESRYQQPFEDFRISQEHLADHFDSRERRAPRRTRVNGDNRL

Turning to `CCOC(=O)C(NC(=O)CC)(N1CCc2ccccc2C1)C(F)(F)F` (configuration not stated), the values for the IC50 (in “cells [1]”; in test [3]) were > 29.9 µM (inactive) and 1.03 µM (active), respectively. Besides, the EC50 was 125 nM (active) in [2] and > 29.9 µM (inactive) in “cells [4]”.
For the compound `CCCC#Cc1ccc2c(c1)COc1c3ccccc3nn1-2`, the EC50 (in test [5]; in the test “cells [6]”) was > 67.5 µM (inactive) each time.
On to `O=C(NNC(=S)Nc1ccccc1)NNC(=S)Nc1ccccc1`, for which the IC50 in test [7] was > 122 µM (inactive).
Take `COC(=O)c1ccc2nc(NC(=O)C3CCCCC3)sc2c1`: in [8], the IC50 was 51.6 µM (inactive).
With `O=C(Nc1nc(COc2ccccc2)cs1)C12CC3CC(CC(C3)C1)C2`, the results for the EC50 (in test [9]; in [10]; in the test on H4) were 26.8 µM (active), 20.7 µM (active) and 19 µM (active), respectively. In addition, the figures for the IC50 in test [11], in test [14] and in test [15] were 2.03 µM (not active), > 123 µM (inactive) and > 123 µM (inactive), respectively. Further, the figures for the AC50 in test [12] and in test [13] were 49.8 µM (active) and 34.9 µM (active), respectively.
With `CC1(C)CC(=O)C=C(c2ccc(-c3cnc4ccccc4c3)cc2)C1=O`, the IC50 in [16] was 4.87 µM (active).
Take `C[C@H](CO)N1C[C@H](C)[C@H](CN(C)Cc2ccc(Oc3ccccc3)cc2)Oc2c(NC(=O)c3ccncc3)cccc2C1=O`: the IC50 in test [17] is 52.2 µM (active); in test [18], > 100 µM (inactive); in test [20], 18.5 µM (inactive); in test [21] it was 2.32 µM (inactive); in [22], 54.7 µM (inactive); in [25] it was 9.8 nM (active). The IC50 in test [26] is > 100 µM (inactive); in [27], 75.5 nM (active); in [28], 22.2 µM (inactive). Moreover, the AC50 in test [19] is 75 nM (active); in test [23], 1.27 nM (active); in [24], 15.8 nM (active).
Turning to `COC(=O)C1=C(C)N(CC(C)C)C(=S)NC1c1ccc(Cl)cc1` (configuration not stated), the AC50 with Cryptococcus neoformans was 24 µM (active); in the test with Cryptococcus neoformans (Cryptococcus neoformans), 36.5 µM (active); in the test on HeLa, > 60 µM (inactive).
